Results on 1 compound are retold here after BindingDB's records for patent US20250066353 (Athos Therapeutics, 2025).

In this assay the target is T1, Pantetheinase (Homo sapiens, UniProt O95497).
T1 sequence (O95497 whole entry): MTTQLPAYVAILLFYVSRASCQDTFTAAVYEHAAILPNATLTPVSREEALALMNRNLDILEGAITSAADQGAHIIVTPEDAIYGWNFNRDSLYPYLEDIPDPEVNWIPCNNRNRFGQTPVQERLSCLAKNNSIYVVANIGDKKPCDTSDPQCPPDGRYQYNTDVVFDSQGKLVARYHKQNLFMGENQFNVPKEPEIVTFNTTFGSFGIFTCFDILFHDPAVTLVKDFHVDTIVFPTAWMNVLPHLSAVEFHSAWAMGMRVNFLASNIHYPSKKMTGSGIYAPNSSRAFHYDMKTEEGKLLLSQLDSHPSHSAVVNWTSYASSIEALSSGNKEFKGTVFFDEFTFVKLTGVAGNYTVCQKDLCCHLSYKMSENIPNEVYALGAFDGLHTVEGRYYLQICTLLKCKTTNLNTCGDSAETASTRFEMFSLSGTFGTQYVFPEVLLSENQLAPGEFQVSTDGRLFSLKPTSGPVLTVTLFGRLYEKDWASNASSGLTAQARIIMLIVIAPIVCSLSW
Description: VNN1 Inhibitor Binding Assay. The protocol: 5 μL of 3× (45 μM) of Pantothenate-AMC to achieve final concentrations of 15 μM (0.25% DMSO final) were added in a 384 well assay plate followed by the addition of 5 μL of 3× the desired concentration of the tested compounds (Compound 1; Compound 2; and RR6) in 0.75% DMSO to designated wells (0.25% of DMSO final). The range of the compound concentrations tested was 10, 3.33, 1.11, 0.37, 0.12, 0.04, 0.01, 0.0046, 0.001, and 0.0005 μM. 5 μL of 0.75% DMSO were also added to positive and negative control wells.5 μL of 1.4 ng/μL Vanain-1 was added to the assay plate to achieve a final amount of 7 ng/well, and covered with plate sealer. Another 5 μL of assay buffer was added to negative controls and the assay plate was then centrifuged briefly (1000 rpm for 30 s) in a plate centrifuge. The assay plate was incubated in the dark for 20 minutes at room temperature and immediately read on an Envision 2105, PerkinElmer multimode plate reader.The fluorescence read was captured at excitation wavelength of 355 nm and emission wavelength of 460 nm.

Usually IC50 stands for the concentration at which inhibition is half-maximal. A high value points to weaker potency. For `CC(=O)NCCN1Cc2nc(NCc3cncc(C#N)c3)ccc2C1=O` [US20250066353, Compound 41], the IC50 is > 10 µM.
